In paper PMC7582705, “Structure-Based Discovery of Novel Chemical Classes of Autotaxin Inhibitors” (International Journal of Molecular Sciences, 2020):
Read-outs that look alike come from different tables or passages of the source.

What was measured:
[1] = target: T1, ATX (Homo sapiens, UniProt Q13822); test: Amplex Red Lyso-phospholipase D assay, human ATX; format: biochemical; set-up: purchased Sino Biological; conditions: for inhibition at 30 µM: read-out: %inhibition at 30uM
Experimental: (§1) All compounds proposed were assessed for their ATX inhibitory activity in vitro using the Amplex Red assay. The Amplex Red Lyso-phospholipase D assay is a fluorometry-based assay providing a sensitive method for measuring Lyso-phospholipase D (ATX) activity in vitro. In this enzyme-coupled assay, ATX activity is monitored indirectly using 10-acetyl-3,7-dihydrophenoxazine (Amplex Red reagent), a sensitive fluorogenic probe for H2O2. ATX initially cleaves the Lysophosphatidylcholine (LPC) substrate to yield choline and Lysophosphatidic acid (LPA), while choline gets subsequently oxidized by choline oxidase to betaine and H2O2. Lastly, H2O2, in the presence of horseradish peroxidase (HRP), reacts with Amplex Red reagent in a 1:1 stoichiometry to generate the highly fluorescent product resorufin.
The inhibition assay was performed as previously described with some modifications in order to accommodate the newly-discovered lag phase in ATX kinetics. To this end, and in order to provide adequate time to the hydrolysis of LPC by ATX, we added a 30min incubation period between ATX, inhibitors and LPC. Briefly, 2 μL of different concentrations of inhibitors diluted in DMSO (Sigma-Aldrich, St. Louis, MO, USA) were incubated with 50 µL of ATX 8 nM (human or mouse ATX from Sino Biological), and 48 µL reaction buffer (50 mM Tris-Cl pH 8.0 from Thermo Fisher Scientific, Waltham, MA, USA and 5 mM CaCl2 from Honeywell-Fluka, Charlotte, NC, USA) in a black 96-well microplate for 15 min at 37 °C. Thence, another 50 µL of reaction buffer with 200 μM LPC substrate 16:0 (Avanti Polar Lipids Inc, Alabaster, AL, USA) ([…]) was added to the reaction mixture and incubated for 30 min at 37 °C in order for ATX to convert LPC to LPA and choline. Finally, 50 µL of working solution containing 200 μM Amplex Red (Invitrogen, Carlsbad, CA, USA), 4 U/mL HRP (Sigma-Aldrich, St. Louis, MO, USA), 0.4 U/mL choline oxidase (Sigma-Aldrich, St. Louis, MO, USA) in 50 mM Tris-HCl pH 8.0 and 5 mM CaCl2 was added to measure the produced choline. The reaction was monitored at 37 °C in a fluorescence plate reader using excitation at 530 nm and reading at 590 nm, every 5 min for 30 min. The velocity of the reaction and the remaining activity of ATX were calculated at the linear phase of the reaction and dose-response inhibition graphs were plotted with GraphPad Software (GraphPad Software, San Diego, CA, USA). […] In order to evaluate a possible effect of the compounds on the second (choline oxidase) and third (HRP) enzymes of the Amplex Red assay, we also performed the assay in the absence of ATX but in the presence of the compounds. Instead of ATX, we added choline chloride at a final concentration of 2 µM so as the second and third steps of the assay could proceed normally.

[2] = Solubility (Table S1); conditions: YES/NO
[3] = target: T2, mouse ATX (Mus musculus, UniProt Q9R1E6); test: Amplex Red Lyso-phospholipase D assay, mouse ATX; format: biochemical
T2 construct: purchased Sino Biological
Experimental: as §1
The inhibition assay was performed as previously described with some modifications in order to accommodate the newly-discovered lag phase in ATX kinetics. To this end, and in order to provide adequate time to the hydrolysis of LPC by ATX, we added a 30min incubation period between ATX, inhibitors and LPC. Briefly, 2 μL of different concentrations of inhibitors diluted in DMSO (Sigma-Aldrich, St. Louis, MO, USA) were incubated with 50 µL of ATX 8 nM (human or mouse ATX from Sino Biological), and 48 µL reaction buffer (50 mM Tris-Cl pH 8.0 from Thermo Fisher Scientific, Waltham, MA, USA and 5 mM CaCl2 from Honeywell-Fluka, Charlotte, NC, USA) in a black 96-well microplate for 15 min at 37 °C. Thence, another 50 µL of reaction buffer with 200 μM LPC substrate 16:0 (Avanti Polar Lipids Inc, Alabaster, AL, USA) (final concentrations of LPC and ATX are 50 µM and 2 nM, respectively) was added to the reaction mixture and incubated for 30 min at 37 °C in order for ATX to convert LPC to LPA and choline. Finally, 50 µL of working solution containing 200 μM Amplex Red (Invitrogen, Carlsbad, CA, USA), 4 U/mL HRP (Sigma-Aldrich, St. Louis, MO, USA), 0.4 U/mL choline oxidase (Sigma-Aldrich, St. Louis, MO, USA) in 50 mM Tris-HCl pH 8.0 and 5 mM CaCl2 was added to measure the produced choline. The reaction was monitored at 37 °C in a fluorescence plate reader using excitation at 530 nm and reading at 590 nm, every 5 min for 30 min. The velocity of the reaction and the remaining activity of ATX were calculated at the linear phase of the reaction and dose-response inhibition graphs were plotted with GraphPad Software (GraphPad Software, San Diego, CA, USA). […] In order to evaluate a possible effect of the compounds on the second (choline oxidase) and third (HRP) enzymes of the Amplex Red assay, we also performed the assay in the absence of ATX but in the presence of the compounds. Instead of ATX, we added choline chloride at a final concentration of 2 µM so as the second and third steps of the assay could proceed normally.

[4] = target: phosphodiesterase (PDE); test: Phosphodiesterase (PDE) colorimetric assay, 3',5'-cAMP and 3',5'-cGMP as substrates; format: biochemical; conditions: for activity against PDE: in words
Text: This colorimetric assay kit uses 3′,5′-cAMP and 3′,5′-cGMP as substrates, and it is useful for the screening of inhibitors of nucleotide phosphodiesterase activity.

[5] = target: T1, ATX; test: IC50 Eleanna (Table S2, method not described); format: biochemical
[6] = recombinant human ATX 2 nM, LPC 16:0 substrate, Amplex Red, read-out: IC50 hATX
[7] = in vitro IC50 (hATX 1nM), Table S2, hATX 1nM
[8] = in vitro IC50 (mATX 2nM), Table S2, mATX 2nM
[9] = Table S2, read-out: IC50 Eleanna
[10] = in vitro IC50 (Sino hATX 2nM), Table S2, Sino hATX 2nM
[11] = recombinant mouse ATX 2 nM, LPC 16:0 substrate, Amplex Red, read-out: IC50 mATX
[12] = IC50 hATX, recombinant human ATX 2 nM, LPC 16:0 substrate, Amplex Red

Compound	IC50 [1, 6] [µM]	Solubility [2]	other results
Cc1c(S(=O)(=O)N2CCN(C3c4ccccc4-c4ccccc43)CC2)sc2ccc(Cl)cc12 [HTS08762, 1-[(5-chloro-3-methyl-1-benzothiophen-2-yl)sulfonyl]-4-(9H-fluoren-9-yl)piperazine]	> 100	YES	
Cc1nn(-c2ccccc2)c2nc(OCC(=O)c3ccc(Br)cc3)c(C#N)c(-c3cccnc3)c12 [HTS09079, 6-[2-(4-bromophenyl)-2-oxoethoxy]-3-methyl-1-phenyl-4-pyridin-3-,ylpyrazolo[4,5-e]pyridine-5-carbonitrile]	> 100	YES	
Cc1ccc(C2=CC(c3cn(-c4ccccc4)nc3-c3ccccc3)N3C(=O)CSC3=N2)cc1 (stereo not drawn) [HTS09893, 5-(1,3-diphenylpyrazol-4-yl)-7-(4-methylphenyl)-5H-[1,3]thiazolo[3,2-a]pyrimidin-3-one]	> 100	YES	
O=C(CN1CCN(C2c3ccccc3-c3ccccc32)CC1)c1ccc2c(c1)OCO2 [HTS10658, 1-(1,3-benzodioxol-5-yl)-2-[4-(9H-fluoren-9-yl)piperazin-1-yl]ethanone]	> 100	YES	
Nc1ncnc2c1ncn2CCc1ccccc1 [HTS11215, 9-phenethyl-9H-purin-6-amine]	> 100	YES	
NC(=NOC(=O)c1cncc(C#Cc2ccccc2)c1)c1cccc(C(F)(F)F)c1 [KM08386, O1-{[5-(2-phenyleth-1-ynyl)-3-pyridyl]carbonyl}-3-(trifluoromethyl)benzene-1-carbohydroximamide]	> 100	YES	
CCOC(=O)c1c(CN2CCCC2)n(-c2ccccc2)c2cc(Br)c(OC)cc12 [KM-3, ethyl 6-bromo-5-methoxy-1-phenyl-2-(pyrrolidin-1-ylmethyl)indole-3-carboxylate]			inhibition at 30 µM ([1]; Table S2, at 30uM): 17%; IC50 [1, 7]: 54 µM; IC50 [3, 8]: 57 µM
Cc1cccc(C)c1NC(=O)CSc1nc2ccccc2c(=O)n1CCc1cccs1 [KM-28, N-(2,6-dimethylphenyl)-2-[4-oxo-3-(2-thiophen-2-ylethyl)quinazolin-2-yl]sulfanylacetamide]	1.8		IC50 [4]: 0.9 µM; activity against PDE [4]: outstanding activity; IC50 [5, 9]: 2 µM; inhibition at 30 µM ([1]; Table S2, at 30uM): 84.2%; IC50 [1, 10]: 1.85 µM; IC50 [3, 11]: 3 µM
COc1ccccc1NC(=S)N1CCn2cccc2C1c1ccc(OC)c(OC)c1 (stereo not drawn) [KM-41, 1-(3,4-dimethoxyphenyl)-N-(2-methoxyphenyl)-3,4-dihydro-1H-pyrrolo[1,2-a]pyrazine-2-carbothioamide]			IC50 [5, 9]: 0.3 µM; inhibition at 30 µM ([1]; Table S2, at 30uM): 33.5%; IC50 [1, 7]: 38 µM; IC50 [3, 8]: 60 µM
O=C(NC(=O)c1ccc(-c2ccc(Cl)cc2)s1)Nc1cc(C(F)(F)F)cc(C(F)(F)F)c1 [MBE00201, N-[[3,5-bis(trifluoromethyl)phenyl]carbamoyl]-5-(4-chlorophenyl)thiophene-2-carboxamide]	> 100	YES	
O=C(C(=Cc1ccccc1)n1ccnc1)c1ccccc1OCc1ccccc1 [NRB02626, 1-[2-(benzyloxy)phenyl]-2-(1H-imidazol-1-yl)-3-phenylprop-2-en-1-0ne]	> 100	YES	
O=C1C2=C([CH]C=C[CH]2)C(=O)N1CN(Cc1csc2ccccc12)CN1C(=O)c2ccccc2C1=O [PD00399]		YES	IC50 [1, 12]: > 100 µM
COc1ccc(C2C(C(=O)O)c3ccccc3C(=O)N2Cc2ccc(F)cc2)cc1 (stereo not drawn) [PD00668, 2-(4-fluorobenzyl)-3-(4-methoxyphenyl)-1-oxo-1,2,3,4-tetrahydroisoquinoline-4-carboxylic acid]	> 100	YES	
FC(F)(F)c1ccc2c(c1)nc(SCc1ccccc1)n2CCc1ccccc1 [RDR02791, 2-benzylsulfanyl-1-(2-phenylethyl)-5-(trifluoromethyl)benzimidazole]	> 100	YES	
CC(=O)Oc1ccccc1C(=CC=C(c1ccccc1)c1ccccc1)N1CCOCC1 [RF01254, 2-(1-morpholino-4,4-diphenylbuta-1,3-dienyl)phenyl acetate]	> 100	YES	
COc1ccc(-n2c(-c3ccc(Cl)cc3)cc(-c3cccs3)c2-c2ccccc2)cc1 [RG00099, 5-(4-chlorophenyl)-1-(4-methoxyphenyl)-2-phenyl-3-(2-thienyl)-1H-pyrrole]	> 100	YES	
O=C(Nc1c2c(nn1-c1ccc([N+](=O)[O-])cc1)CSC2)c1cccc2ccccc12 [SC-49, N-[2-(4-nitrophenyl)-4,6-dihydrothieno[3,4-c]pyrazol-3-yl]naphthalene-1-carboxamide]			activity against PDE [4]: outstanding activity; IC50 [5]: 0.2 µM; IC50 [1, 12]: 10.2 µM; IC50 [1, 10]: 10.2 µM; IC50 [1, 7]: 9 µM; inhibition at 30 µM [1]: 65.8%; IC50 [3]: 9.7 µM
O=C1Nc2ccccc2/C1=C/c1cc2ccccc2n1S(=O)(=O)c1ccccc1 [SCR01013, (3Z)-3-[[1-(Benzenesulfonyl)indol-2-yl]methylidene]-1H-indol-2-one]	79	YES	IC50 [5, 9]: 0.6 µM; inhibition at 30 µM ([1]; Table S2, at 30uM): 13.2%; IC50 [1, 7]: 43 µM; IC50 [3, 11]: 67 µM
NC(=NOC(=O)c1ccc(-c2cccs2)s1)c1cccc(C(F)(F)F)c1 [SEW02612, N'-{[5-(2-thienyl)-2-thienylcarbonyl]oxy}-3-(trifluoromethyl)benzenecarboximidamide]	> 100	YES	
O=S(=O)(Nc1cc(-c2cccs2)nn1-c1ccc(F)cc1)c1ccc(-c2cc(C(F)(F)F)on2)s1 [SP00998]	> 100	YES	
